Experimental data from ChEMBL document CHEMBL1201862, “PubChem BioAssay data set” (2004).
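All cell lines were grown in 96-well plates and treated with compound for 48 hours. GI50 marks 50% less growth.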 Activity calls are given as the source filed them. Rule as the data show it: active = GI50 up to about 1.1 µM and inactive = higher.

Key:
Assay in all cases: growth of human tumour cells (NCI), 48 h
HL-60 = system: HL-60
U-251 = system: U-251
EKVX = system: EKVX
LOX IMVI = system: LOX IMVI
SNB-75 = system: SNB-75
TK-10 = system: TK-10
HT-29 = system: HT-29
UACC-257 = system: UACC-257
SF-268 = system: SF-268
MOLT-4 = system: MOLT-4
NCI-H460 = system: NCI-H460
SNB-19 = system: SNB-19
OVCAR-5 = system: OVCAR-5
BT-549 = system: BT-549
MCF7 = system: MCF7
HCC 2998 = system: HCC 2998
OVCAR-4 = system: OVCAR-4
CCRF-CEM = system: CCRF-CEM
MDA-MB-435 = system: MDA-MB-435
HCT-15 = system: HCT-15
A498 = system: A498
NCI-H23 = system: NCI-H23
HCT-116 = system: HCT-116
DU-145 = system: DU-145
ACHN = system: ACHN
SW-620 = system: SW-620
NCI-H226 = system: NCI-H226
T47D = system: T47D
KM12 = system: KM12
MDA-N = system: MDA-N
SK-MEL-28 = system: SK-MEL-28
Hs-578T = system: Hs-578T
A549 = system: A549
MDA-MB-231 = system: MDA-MB-231
PC-3 = system: PC-3
SK-OV-3 = system: SK-OV-3
NCI-H522 = system: NCI-H522
Malme-3M = system: Malme-3M
OVCAR-8 = system: OVCAR-8
786-0 = system: 786-0
RPMI-8226 = system: RPMI-8226
OVCAR-3 = system: OVCAR-3
M14 = system: M14
COLO 205 = system: COLO 205
SN12C = system: SN12C
SR = system: SR
SK-MEL-2 = system: SK-MEL-2
IGROV-1 = system: IGROV-1
NCI/ADR-RES = system: NCI/ADR-RES
SF-295 = system: SF-295
HOP-62 = system: HOP-62
SF-539 = system: SF-539
SK-MEL-5 = system: SK-MEL-5
CAKI-1 = system: CAKI-1
UO-31 = system: UO-31
K562 = system: K562
RXF 393 = system: RXF 393
HOP-92 = system: HOP-92
UACC-62 = system: UACC-62

O=C(O)c1cc2c(cc1CC(Cc1ccccc1)C(=O)O)CCC2 (stereo not given)
GI50 (HL-60): > 100 µM (inactive) | GI50 (U-251): > 100 µM (inactive) | GI50 (EKVX): > 100 µM (inactive) | GI50 (LOX IMVI): > 100 µM (inactive) | GI50 (SNB-75): > 100 µM (inactive) | GI50 (TK-10): > 100 µM (inactive) | GI50 (HT-29): > 100 µM (inactive) | GI50 (UACC-257): > 100 µM (inactive) | GI50 (SF-268): > 100 µM (inactive) | GI50 (MOLT-4): > 100 µM (inactive) | GI50 (NCI-H460): > 100 µM (inactive) | GI50 (SNB-19): > 100 µM (inactive) | GI50 (OVCAR-5): > 100 µM (inactive) | GI50 (BT-549): > 100 µM (inactive) | GI50 (MCF7): > 100 µM (inactive) | GI50 (HCC 2998): > 100 µM (inactive) | GI50 (OVCAR-4): > 100 µM (inactive) | GI50 (CCRF-CEM): > 100 µM (inactive) | GI50 (MDA-MB-435): > 100 µM (inactive) | GI50 (HCT-15): > 100 µM | GI50 (A498): > 100 µM (inactive) | GI50 (NCI-H23): > 100 µM (inactive) | GI50 (HCT-116): > 100 µM (inactive) | GI50 (DU-145): > 100 µM (inactive) | GI50 (ACHN): > 100 µM (inactive) | GI50 (SW-620): > 100 µM (inactive) | GI50 (NCI-H226): > 100 µM (inactive) | GI50 (T47D): > 100 µM (inactive) | GI50 (KM12): > 100 µM (inactive) | GI50 (MDA-N): > 100 µM (inactive) | GI50 (SK-MEL-28): > 100 µM (inactive) | GI50 (Hs-578T): > 100 µM (inactive) | GI50 (A549): > 100 µM (inactive) | GI50 (MDA-MB-231): > 100 µM (inactive) | GI50 (PC-3): > 100 µM (inactive) | GI50 (SK-OV-3): > 100 µM (inactive) | GI50 (NCI-H522): > 100 µM (inactive) | GI50 (Malme-3M): > 100 µM (inactive) | GI50 (OVCAR-8): > 100 µM (inactive) | GI50 (786-0): > 100 µM (inactive) | GI50 (RPMI-8226): > 100 µM (inactive) | GI50 (OVCAR-3): > 100 µM (inactive) | GI50 (M14): > 100 µM (inactive) | GI50 (COLO 205): > 100 µM (inactive) | GI50 (SN12C): > 100 µM (inactive) | GI50 (SR): > 100 µM (inactive) | GI50 (SK-MEL-2): > 100 µM (inactive) | GI50 (IGROV-1): > 100 µM (inactive) | GI50 (NCI/ADR-RES): > 100 µM (inactive) | GI50 (SF-295): > 100 µM (inactive) | GI50 (HOP-62): > 100 µM (inactive) | GI50 (SF-539): > 100 µM (inactive) | GI50 (SK-MEL-5): > 100 µM (inactive) | GI50 (CAKI-1): > 100 µM (inactive) | GI50 (UO-31): > 100 µM (inactive) | GI50 (K562): > 100 µM (inactive) | GI50 (RXF 393): > 100 µM (inactive)

Cc1ccc(OP(=O)(Oc2ccc(C)cc2)N2C=Cc3ccccc3C2C#N)cc1 (stereo not given)
GI50 (HL-60): > 100 µM (inactive) | GI50 (U-251): > 100 µM (inactive) | GI50 (EKVX): > 100 µM (inactive) | GI50 (LOX IMVI): > 100 µM (inactive) | GI50 (SNB-75): > 100 µM (inactive) | GI50 (TK-10): > 100 µM (inactive) | GI50 (HT-29): > 100 µM (inactive) | GI50 (UACC-257): > 100 µM (inactive) | GI50 (SF-268): > 100 µM (inactive) | GI50 (MOLT-4): > 100 µM (inactive) | GI50 (NCI-H460): > 100 µM (inactive) | GI50 (SNB-19): > 100 µM (inactive) | GI50 (HOP-92): > 100 µM (inactive) | GI50 (OVCAR-5): > 100 µM (inactive) | GI50 (BT-549): > 100 µM (inactive) | GI50 (MCF7): > 100 µM (inactive) | GI50 (OVCAR-4): > 100 µM (inactive) | GI50 (CCRF-CEM): > 100 µM (inactive) | GI50 (MDA-MB-435): > 100 µM (inactive) | GI50 (HCT-15): > 100 µM | GI50 (A498): > 100 µM (inactive) | GI50 (NCI-H23): > 100 µM (inactive) | GI50 (HCT-116): > 100 µM (inactive) | GI50 (DU-145): > 100 µM (inactive) | GI50 (ACHN): > 100 µM (inactive) | GI50 (SW-620): > 100 µM (inactive) | GI50 (NCI-H226): > 100 µM (inactive) | GI50 (T47D): > 100 µM (inactive) | GI50 (KM12): > 100 µM (inactive) | GI50 (MDA-N): > 100 µM (inactive) | GI50 (SK-MEL-28): > 100 µM (inactive) | GI50 (Hs-578T): 70.5 µM (inactive) | GI50 (A549): > 100 µM (inactive) | GI50 (MDA-MB-231): > 100 µM (inactive) | GI50 (PC-3): > 100 µM (inactive) | GI50 (SK-OV-3): > 100 µM (inactive) | GI50 (NCI-H522): 48.8 µM (inactive) | GI50 (Malme-3M): 82.8 µM (inactive) | GI50 (OVCAR-8): > 100 µM (inactive) | GI50 (786-0): > 100 µM (inactive) | GI50 (RPMI-8226): > 100 µM (inactive) | GI50 (OVCAR-3): > 100 µM (inactive) | GI50 (UACC-62): > 100 µM (inactive) | GI50 (M14): > 100 µM (inactive) | GI50 (COLO 205): > 100 µM (inactive) | GI50 (SN12C): > 100 µM (inactive) | GI50 (SR): > 100 µM (inactive) | GI50 (SK-MEL-2): > 100 µM (inactive) | GI50 (IGROV-1): > 100 µM (inactive) | GI50 (NCI/ADR-RES): > 100 µM (inactive) | GI50 (SF-295): > 100 µM (inactive) | GI50 (HOP-62): > 100 µM (inactive) | GI50 (SF-539): > 100 µM (inactive) | GI50 (SK-MEL-5): > 100 µM (inactive) | GI50 (CAKI-1): > 100 µM (inactive) | GI50 (UO-31): > 100 µM (inactive) | GI50 (K562): > 100 µM (inactive) | GI50 (RXF 393): > 100 µM (inactive)
